Laboratory results reported in US20180252704A1, “SCREENING ASSAY TO IDENTIFY IDO1 AND/OR TDO MODULATORS” (Hoffmann-La Roche Inc., priority 2015, published 2018).

Molecular target: T1, human TDO (Homo sapiens, UniProt P48775)
T1 construct: expressed in transfected cells; pTet-On plus pTRE2hyg-TDO2
Experiment: cell based fluorescence assay of TDO activity in HepG2-Tet-on-TDO *25 cells (kynurenine detected with Sensor 1), compared with the prior art biochemical TDO assay
Details: IC50 cell-based assay versus biochemical assay
Experimental: Assay Methods: Cells were seeded 10,000 cells/well in the Cell Plate and incubated at 37° C. and 5% CO2 in the 95% humidified cell culture incubator. Cells were then induced with 1 μg/ml of doxycyline for 24 h to achieve full expression of IDO or TDO. Non-induced cells were used as 100% inhibition control. After washing 3 times with 60 μl of 1× HBSS (37° C.), cells were equilibrated with 60 μl of 1× HBSS in the cell culture incubator for 30 min. After an-other 3 times washing with 60 μl of 1× HBSS (37° C.), cells were treated with compounds for 10 min before adding the substrate, L-tryptophan, to a final concentration of 80 μM. The assay was carried out for 4 h at 37° C. and 5% CO2 in the cell culture incubator. The reaction was then stopped by transfer of 30 μl/well of supernatant into the Assay Plate. 10 μl/well of 30% (w/v) TCA were added and followed by application of Sensor 1 to a final concentration of 10 μM. After brief centrifugation, the fluorescence was measured at Ex: 546, Em: 586nm with a Paradigm (Molecular devices) plate reader. [table]

T1 sequence (P48775 whole entry): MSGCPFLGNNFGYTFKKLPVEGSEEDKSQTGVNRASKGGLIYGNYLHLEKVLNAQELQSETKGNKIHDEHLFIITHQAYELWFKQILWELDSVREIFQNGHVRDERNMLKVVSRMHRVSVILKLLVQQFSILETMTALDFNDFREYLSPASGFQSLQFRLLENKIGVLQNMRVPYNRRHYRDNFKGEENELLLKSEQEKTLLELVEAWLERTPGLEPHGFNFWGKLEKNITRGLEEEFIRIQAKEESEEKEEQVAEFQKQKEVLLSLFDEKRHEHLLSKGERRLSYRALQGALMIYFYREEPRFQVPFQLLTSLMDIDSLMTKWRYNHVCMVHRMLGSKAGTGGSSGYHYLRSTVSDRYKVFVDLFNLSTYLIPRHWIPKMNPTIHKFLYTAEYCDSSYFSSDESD

right-shift of IC50 from biochemical assay to cell-based assay in TDO enzyme activity: Over 100 fold
Compound: NS(=O)(=O)NCCNc1nonc1/C(=N/O)Nc1ccc(F)c(Br)c1 [INCB024360, (Z)-N-(3-bromo-4-fluorophenyl)-N′-hydroxy-4-(2-(sulfamoylamino)ethylamino)-1,2,5-oxadiazole-3-carboximidamide]
